Assay results from patent US20260125371A1, “METHOD FOR INHIBITING CLOSTRIDIOIDES DIFFICILE SPORE GERMINATION” (UNIVERSITY OF NOTRE DAME DU LAC, priority 2022, published 2026).
Converted amounts (≈) assume the structure as drawn. Read-outs that look alike come from different tables or passages of the source.

Columns and labels:
[1] = test system: C. difficile ATCC 43255; assay: Determination of minimal-inhibitory concentrations (microdilution), C. difficile ATCC 43255; type: cell-based, Clostridioides difficile; conditions: for MIC: Clostridioides difficile
[2] = test system: S. aureus; assay: MIC against S. aureus strains; type: cell-based; conditions: S. aureus ATCC 29213, 24 h; for MIC: Staphylococcus aureus, ATCC29213, 24 h, read-out: MIC (μg/mL) 24 h
[3] = test system: C. difficile strains; assay: MIC (microdilution) against panel of 101 C. difficile strains; type: cell-based, Clostridioides difficile; conditions: Clostridioides difficile
[4] = C. difficile ATCC 43255, 48-h incubation
[5] = ATCC43255, 24 h, C. difficile ATCC 43255, 24 h, read-out: MIC (μg/mL) 24 h
[6] = ATCC43255, 48 h, C. difficile ATCC 43255, 48-h incubation, read-out: MIC (μg/mL) 48 h

Compound: COc1ccc(-c2nc(-c3ccc(Oc4ccc(C(F)(F)F)cc4)cc3)no2)cc1[N+](=O)[O-] [Compound 22]
- MIC (μg/mL) 48 h [1, 4]: >128 µg/mL
- MIC (μg/mL) 24 h ([1]; C. difficile ATCC 43255, 24 h): >128 µg/mL
- MIC (μg/mL) 24 h [2]: >128 µg/mL

Compound: COc1cc(-c2nc(-c3ccc(Oc4ccc(C(F)(F)F)cc4)cc3)no2)ccc1O [Compound 13]
- MIC (μg/mL) 48 h [1, 4]: 16 µg/mL (≈ 37.4 µM)
- MIC (μg/mL) 24 h ([1]; C. difficile ATCC 43255, 24 h): 16 µg/mL (≈ 37.4 µM)
- MIC (μg/mL) 24 h [2]: >128 µg/mL

Compound: OCC#Cc1c[nH]nc1-c1nc(-c2ccc(Oc3ccc(C(F)(F)F)cc3)cc2)no1 [Compound 29]
- MIC (μg/mL) 48 h [1, 4]: >128 µg/mL
- MIC (μg/mL) 24 h ([1]; C. difficile ATCC 43255, 24 h): >128 µg/mL
- MIC (μg/mL) 24 h [2]: 4 µg/mL (≈ 9.38 µM)

Compound: c1cc(-c2noc(-c3ccc4c(c3)CCN4)n2)ccc1OC1CCCC1 [Compound 54, 3-(4-(Cyclopentyloxy)phenyl)-5-(indolin-5-yl)-1,2,4-oxadiazole]
- MIC [1, 5]: 4 µg/mL (≈ 11.5 µM)
- MIC [1, 6]: 8 µg/mL (≈ 23 µM)
- MIC ([1]; ATCC43255, strain ATCC43255, read-out: MIC): 2 µg/mL (≈ 5.76 µM)
- MIC ([3]; ATCC43598, strain ATCC43598): 2 µg/mL (≈ 5.76 µM)
- MIC ([3]; BAA1801, strain BAA-1801): 4 µg/mL (≈ 11.5 µM)
- MIC ([3]; BAA1803, strain BAA-1803): 2 µg/mL (≈ 5.76 µM)
- MIC ([3]; BAA1804, strain BAA-1804): 2 µg/mL (≈ 5.76 µM)
- MIC ([3]; BAA1812, strain BAA-1812): 2 µg/mL (≈ 5.76 µM)
- MIC ([3]; BAA1814, strain BAA-1814): 4 µg/mL (≈ 11.5 µM)
- MIC ([3]; BAA1870, strain BAA-1870): 4 µg/mL (≈ 11.5 µM)
- MIC ([3]; strain HM-88): 4 µg/mL (≈ 11.5 µM)
- MIC ([3]; strain HM-89): 8 µg/mL (≈ 23 µM)
- MIC ([3]; strain HM-745): 2 µg/mL (≈ 5.76 µM)
- MIC ([3]; strain HM-746): 2 µg/mL (≈ 5.76 µM)
- MIC ([3]; strain HM-747): 1 µg/mL (≈ 2.88 µM)
- MIC ([3]; strain NR49292): 8 µg/mL (≈ 23 µM)
- MIC ([3]; strain NR49294): 2 µg/mL (≈ 5.76 µM)
- MIC ([3]; strain NR49302): 4 µg/mL (≈ 11.5 µM)
- MIC ([3]; strain NR49305): 8 µg/mL (≈ 23 µM)
- MIC ([3]; strain NR49310): 4 µg/mL (≈ 11.5 µM)
- MIC ([3]; strain NR49318): 8 µg/mL (≈ 23 µM)
- MIC ([3]; strain NR-13427): 8 µg/mL (≈ 23 µM)
- MIC ([3]; strain NR-13428): 8 µg/mL (≈ 23 µM)
- MIC ([3]; strain NR-13429): 4 µg/mL (≈ 11.5 µM)
- MIC ([3]; strain NR-13430): 8 µg/mL (≈ 23 µM)
- MIC ([3]; strain NR-13431): 4 µg/mL (≈ 11.5 µM)
- MIC ([3]; strain NR-13433): 4 µg/mL (≈ 11.5 µM)
- MIC ([3]; strain NR-13434): 4 µg/mL (≈ 11.5 µM)
- MIC ([3]; strain NR-13435): 4 µg/mL (≈ 11.5 µM)
- MIC ([3]; strain NR-13436): 8 µg/mL (≈ 23 µM)
- MIC ([3]; strain NR-13437): 8 µg/mL (≈ 23 µM)
- MIC ([3]; strain NR-13438): 8 µg/mL (≈ 23 µM)
- MIC ([3]; strain NR-13553): 4 µg/mL (≈ 11.5 µM)
- MIC ([3]; strain NR-32882): 4 µg/mL (≈ 11.5 µM)
- MIC ([3]; strain NR-32883): 4 µg/mL (≈ 11.5 µM)
- MIC ([3]; strain NR-32884): 4 µg/mL (≈ 11.5 µM)
- MIC ([3]; strain NR-32885): 8 µg/mL (≈ 23 µM)
- MIC ([3]; strain NR-32886): 8 µg/mL (≈ 23 µM)
- MIC ([3]; strain NR-32887): 4 µg/mL (≈ 11.5 µM)
- MIC ([3]; strain NR-32888): 8 µg/mL (≈ 23 µM)
- MIC ([3]; strain NR-32889): 4 µg/mL (≈ 11.5 µM)
- MIC ([3]; strain NR-32890): 4 µg/mL (≈ 11.5 µM)
- MIC ([3]; strain NR-32891): 4 µg/mL (≈ 11.5 µM)
- MIC ([3]; strain NR-32892): 4 µg/mL (≈ 11.5 µM)
- MIC ([3]; strain NR-32895): 8 µg/mL (≈ 23 µM)
- MIC ([3]; strain NR-32896): 4 µg/mL (≈ 11.5 µM)
- MIC ([3]; strain NR-32897): 4 µg/mL (≈ 11.5 µM)
- MIC ([3]; strain NR-32900): 4 µg/mL (≈ 11.5 µM)
- MIC ([3]; strain NR-32903): 2 µg/mL (≈ 5.76 µM)
- MIC ([3]; strain NR-32904): 4 µg/mL (≈ 11.5 µM)
- MIC ([3]; strain NR-49277): 4 µg/mL (≈ 11.5 µM)
- MIC ([3]; strain NR-49278): 4 µg/mL (≈ 11.5 µM)
- MIC ([3]; strain NR-49279): 4 µg/mL (≈ 11.5 µM)
- MIC ([3]; strain NR-49280): 2 µg/mL (≈ 5.76 µM)
- MIC ([3]; strain NR-49281): 4 µg/mL (≈ 11.5 µM)
- MIC ([3]; strain NR-49282): 2 µg/mL (≈ 5.76 µM)
- MIC ([3]; strain NR-49283): 2 µg/mL (≈ 5.76 µM)
- MIC ([3]; strain NR-49284): 4 µg/mL (≈ 11.5 µM)
- MIC ([3]; strain NR-49285): 4 µg/mL (≈ 11.5 µM)
- MIC ([3]; strain NR-49286): 2 µg/mL (≈ 5.76 µM)
- MIC ([3]; strain NR-49287): 4 µg/mL (≈ 11.5 µM)
- MIC ([3]; strain NR-49288): 4 µg/mL (≈ 11.5 µM)
- MIC ([3]; strain NR-49289): 4 µg/mL (≈ 11.5 µM)
- MIC ([3]; strain NR-49290): 4 µg/mL (≈ 11.5 µM)
- MIC ([3]; strain NR-49291): 4 µg/mL (≈ 11.5 µM)
- MIC ([3]; strain NR-49293): 2 µg/mL (≈ 5.76 µM)
- MIC ([3]; strain NR-49295): 4 µg/mL (≈ 11.5 µM)
- MIC ([3]; strain NR-49296): 8 µg/mL (≈ 23 µM)
- MIC ([3]; strain NR-49297): 4 µg/mL (≈ 11.5 µM)
- MIC ([3]; strain NR-49298): 8 µg/mL (≈ 23 µM)
- MIC ([3]; strain NR-49299): 8 µg/mL (≈ 23 µM)
- MIC ([3]; strain NR-49300): 8 µg/mL (≈ 23 µM)
- MIC ([3]; strain NR-49301): 8 µg/mL (≈ 23 µM)
- MIC ([3]; strain NR-49303): 4 µg/mL (≈ 11.5 µM)
- MIC ([3]; strain NR-49304): 8 µg/mL (≈ 23 µM)
- MIC ([3]; strain NR-49306): 4 µg/mL (≈ 11.5 µM)
- MIC ([3]; strain NR-49307): 2 µg/mL (≈ 5.76 µM)
- MIC ([3]; strain NR-49308): 2 µg/mL (≈ 5.76 µM)
- MIC ([3]; strain NR-49309): 8 µg/mL (≈ 23 µM)
- MIC ([3]; strain NR-49311): 4 µg/mL (≈ 11.5 µM)
- MIC ([3]; strain NR-49312): 4 µg/mL (≈ 11.5 µM)
- MIC ([3]; strain NR-49313): 4 µg/mL (≈ 11.5 µM)
- MIC ([3]; strain NR-49314): 4 µg/mL (≈ 11.5 µM)
- MIC ([3]; strain NR-49315): 2 µg/mL (≈ 5.76 µM)
- MIC ([3]; strain NR-49316): 4 µg/mL (≈ 11.5 µM)
- MIC ([3]; strain NR-49317): 2 µg/mL (≈ 5.76 µM)
- MIC ([3]; strain NR-49319): 4 µg/mL (≈ 11.5 µM)
- MIC ([3]; strain NR-49320): 4 µg/mL (≈ 11.5 µM)
- MIC ([3]; strain NR-49321): 4 µg/mL (≈ 11.5 µM)
- MIC ([3]; strain NR-49323): 4 µg/mL (≈ 11.5 µM)
- MIC ([3]; strain NR-49324): 8 µg/mL (≈ 23 µM)
- MIC ([3]; strain NR-49325): 4 µg/mL (≈ 11.5 µM)
- MIC ([3]; strain NR-49326): 8 µg/mL (≈ 23 µM)
- MIC ([3]; strain NR-49327): 8 µg/mL (≈ 23 µM)
- MIC ([3]; strain NR-49328): 8 µg/mL (≈ 23 µM)
- MIC ([3]; strain NR-49329): 8 µg/mL (≈ 23 µM)
- MIC ([3]; strain RMA23691): 2 µg/mL (≈ 5.76 µM)
- MIC ([3]; strain RMA23828): 8 µg/mL (≈ 23 µM)
- MIC ([3]; strain RMA24531): 2 µg/mL (≈ 5.76 µM)
- MIC ([3]; strain RMA24923): 2 µg/mL (≈ 5.76 µM)
- MIC ([3]; strain RMA26675): 8 µg/mL (≈ 23 µM)
- MIC ([3]; strain RMA27081): 8 µg/mL (≈ 23 µM)
- MIC ([3]; strain RMA27173): 4 µg/mL (≈ 11.5 µM)
- MIC50 ([3]; C. difficile strains of Table 4, read-out: MIC50): 4 µg/mL (≈ 11.5 µM)
- MIC90 ([3]; C. difficile strains of Table 4, read-out: MIC90): 8 µg/mL (≈ 23 µM)

Compound: CS(=O)(=O)Nc1ccc(-c2nc(-c3ccc(OC4CCCC4)cc3)no2)cc1 [Compound 52, N-(4-(3-(4-(Cyclopentyloxy)phenyl)-1,2,4-oxadiazol-5-yl)phenyl) methanesulfonamide]
- MIC (μg/mL) 48 h [1, 4]: >128 µg/mL
- MIC [1, 5]: > 128 µg/mL
- MIC [2]: > 128 µg/mL

Compound: CCOc1ccc(-c2noc(-c3ccc(O)cc3)n2)cc1 [Compound 86, 4-(3-(4-Ethoxyphenyl)-1,2,4-oxadiazol-5-yl)phenol]
- MIC [1, 5]: > 128 µg/mL
- MIC [1, 6]: > 128 µg/mL
- MIC [2]: > 128 µg/mL

Compound: FC(F)(F)c1ccc(Oc2ccc(-c3noc(-c4n[nH]cc4NC4CCCCC4)n3)cc2)cc1 [Compound 39]
- MIC (μg/mL) 48 h [1, 4]: >128 µg/mL
- MIC (μg/mL) 24 h ([1]; C. difficile ATCC 43255, 24 h): >128 µg/mL
- MIC (μg/mL) 24 h [2]: >128 µg/mL

Compound: FC(F)(F)c1ccc(Oc2ccc(-c3noc(-c4n[nH]c5ccccc45)n3)cc2)cc1 [Compound 45]
- MIC (μg/mL) 48 h [1, 4]: >128 µg/mL
- MIC (μg/mL) 24 h ([1]; C. difficile ATCC 43255, 24 h): >128 µg/mL
- MIC (μg/mL) 24 h [2]: >128 µg/mL

Compound: FC(F)(F)c1ccc(Oc2ccc(-c3noc(-c4n[nH]cc4I)n3)cc2)cc1 [Compound 28]
- MIC (μg/mL) 48 h [1, 4]: 128 µg/mL (≈ 257 µM)
- MIC (μg/mL) 24 h ([1]; C. difficile ATCC 43255, 24 h): 128 µg/mL (≈ 257 µM)
- MIC (μg/mL) 24 h [2]: 2 µg/mL (≈ 4.01 µM)
